Results on 36 compounds are retold here after patent US10765681B2 (Academia Sinica, priority 2016, dated 2020).

Molecules are shown by their SMILES.

The first series has as its system H1975 lung cancer cells. Description: MTT assay, growth of H1975 lung cancer cells. Format: cell-based. Conditions: Homo sapiens, NCI-H1975, read-out: IC50 against the growth of H1975 lung cancer cells.
As for `COC(=O)c1cccc(-n2c(=O)[nH]c3c(C(N)=O)nc(-c4ccc(OC)c(O)c4)nc32)c1` [Compound 5j, 2-(3-Hydroxy-4-methoxyphenyl)-9-(3-methoxycarbonylphenyl)-8-oxopurine-6-carboxamide], the half-maximal inhibitory concentration (IC50) was found to be 0.35 ± 0.01 µM.
Same read-out and setting: the value for `COc1ccc(-c2nc(C(N)=O)c3nc(S)n(-c4ccccc4)c3n2)cc1O` [Compound 10b, 2-(3-Hydroxy-4-methoxyphenyl)-8-mercapto-9-phenylpurine-6-carboxamide] was 0.24 ± 0.04 µM; that for `CCOc1ccc(-c2nc(C(N)=O)c3[nH]c(=O)n(-c4cccc(C(=O)NCCCCCNC(=O)CCCC[C@@H]5SC[C@@H]6NC(=O)N[C@@H]65)c4)c3n2)cc1` [Compound 8f] was 26.3 ± 0.31 µM.

The series is the same for the next values; noted with them: Homo sapiens, NCI-H1975; H1975; MTT; Table 2; read-out: IC50 against the growth of H1975 lung cancer cells.
For the compound `CCCCCCNC(=O)c1cccc(-n2c(=O)[nH]c3c(C(N)=O)nc(-c4ccc(OCC)cc4)nc32)c1` [Compound 8a, 2-(4-Ethoxyphenyl)-9-(3-hexylcarbamoyl)phenyl-8-oxopurine-6-carboxamide], the IC50 is 0.49 ± 0.1 µM.
On the same count and under the same terms, the result for `CCOc1ccc(-c2nc(C(N)=O)c3nc(SCC(=O)O)n(-c4ccccc4)c3n2)cc1` [Compound 11g, 8-(Carboxymethylthio)-2-(4-ethoxyphenyl)-9-phenylpurine-6-carboxamide] reads 3.94 ± 0.06 µM; that for `CCCCSc1nc2c(C(N)=O)nc(-c3ccc(OCC)cc3)nc2n1-c1ccccc1` [Compound 11b, 8-(Butylthio)-2-(4-ethoxyphenyl)-9-phenylpurine-6-carboxamide], 6.37 ± 0.51 µM; that for `CCOc1ccc(-c2nc(C(N)=O)c3[nH]c(=O)n(-c4cccc(C(=O)NCCCCCNC(=O)OC(C)(C)C)c4)c3n2)cc1` [Compound 8d, 2-(4-Ethoxyphenyl)-9-[3-(5-tert-butoxycarbonylamino)pentylcarbamoyl]phenyl-8-oxopurine-6-carboxamide], 15.5 ± 1.96 µM.
The same measure, in the same setting: the value for `CCOc1ccc(-c2nc(C(N)=O)c3nc(SC(C)=O)n(-c4ccccc4)c3n2)cc1` [Compound 26a, 8-(Acetylthio)-2-(4-ethoxyphenyl)-9-phenylpurine-6-carboxamide] was 41.6 ± 11.6 µM; that for `COc1ccc(-c2nc(C(=N)NO)c3[nH]c(=O)n(-c4ccccc4OC)c3n2)cc1O` [Compound 14f, 2-(3-Hydroxy-4-methoxyphenyl)-9-(2-methoxyphenyl)-8-oxopurine-6-(N-hydroxy)carboximidamide] was 2.8 µM.
The same measure, in the same setting: the value for `CCCCOc1ccc(-c2nc(C(N)=O)c3[nH]c(=O)n(-c4ccccc4OC)c3n2)cc1` [Compound 5c, 2-(4-Butoxyphenyl)-9-(2-methoxyphenyl)-8-oxopurine-6-carboxamide] was 4.66 ± 0.05 µM.
In the case of `CCCCCCCCCCCCNC(=O)c1cccc(-n2c(=O)[nH]c3c(C(N)=O)nc(-c4ccc(OCC)cc4)nc32)c1` [Compound 8b, 2-(4-Ethoxyphenyl)-9-(3-dodecylcarbamoyl)phenyl-8-oxopurine-6-carboxamide], the half-inhibitory concentration (IC50) stood at 10.5 ± 0.25 µM.
On the same count and under the same terms, the value for `CCOc1ccc(-c2nc(C(N)=O)c3[nH]c(=O)n(-c4cccc(C(=O)O)c4)c3n2)cc1` [Compound 6e, 2-(4-Ethoxyphenyl)-9-(3-carboxy)phenyl-8-oxopurine-6-carboxamide] was 7.91 ± 0.18 µM.
The same measure, in the same setting: the result for `CCOc1ccc(-c2nc(C(N)=O)c3nc(SCC(=O)OC)n(-c4ccccc4)c3n2)cc1` [Compound 11f, 2-(4-Ethoxyphenyl)-8-(methoxycarbonylmethylthio)-9-phenylpurine-6-carb oxamide] reads 2.1 µM; that for `CCOc1ccc(-c2nc(C(N)=O)c3nc(SCC(=O)N4CCN(C(=O)OC(C)(C)C)CC4)n(-c4ccccc4)c3n2)cc1` [Compound 11d, 2-(4-Ethoxyphenyl)-9-phenyl-8-{[(4-tert-butoxycarbonyl)piperazinocarbonyl]methylthio}purine-6-carb oxamide], 1.8 µM.
The same measure, in the same setting: the result for `CCOc1ccc(-c2nc(C(N)=O)c3[nH]c(=O)n(-c4cccc(C(=O)NCCCCCN=[N+]=[N-])c4)c3n2)cc1` [Compound 8c, 2-(4-Ethoxyphenyl)-9-[3-(5-azidopentylcarbamoyl)]phenyl-8-oxopurine-6-carboxamide] reads 0.39 ± 0.01 µM.

Still in this series, the particulars now being: Homo sapiens, NCI-H1975; H1975 lung cancer cell line; MTT; Table 3; read-out: IC50 H1975.
For `CCOc1ccc(-c2nc(C#N)c3nc(N4CCOCC4)n(-c4ccccc4OC)c3n2)cc1` [Compound 33b, 2-(4-Ethoxyphenyl)-9-(2-methoxyphenyl)-8-morpholinopurine-6-carbonitrile], the half-inhibitory concentration (IC50) is 74 µM.
The same measure, in the same setting: the result for `CCOc1ccc(-c2nc(C(N)=O)c3nc(SC(C)=O)n(-c4ccccc4)c3n2)cc1` [Compound 26a, 8-(Acetylthio)-2-(4-ethoxyphenyl)-9-phenylpurine-6-carboxamide] reads 41.6 ± 11.6 µM.
The same measure, in the same setting: the result for `COc1ccc(-c2nc(C(=N)NO)c3[nH]c(=O)n(-c4ccccc4OC)c3n2)cc1O` [Compound 14f, 2-(3-Hydroxy-4-methoxyphenyl)-9-(2-methoxyphenyl)-8-oxopurine-6-(N-hydroxy)carboximidamide] reads 2.8 µM.

Test system in another series: not given
Experiment: not given
Conditions: not given
As for `CCOc1ccc(-c2nc(C(N)=O)c3nc(S)n(-c4cc(C(F)(F)F)cc(C(F)(F)F)c4)c3n2)cc1` [Compound 10c, 9-(3,5-Bis(trifluoromethyl)phenyl)-2-(4-ethoxyphenyl)-8-mercaptopurine-6-carboxamide], the melting point lay in the range of 299 to 301 °C.
Still for that read-out and setting: the result for `CCOc1ccc(-c2nc(C(N)=O)c3[nH]c(=O)n(-c4cccc([N+](=O)[O-])c4)c3n2)cc1` [Compound 5l, 2-(4-Ethoxyphenyl)-9-(3-nitrophenyl)-8-oxopurine-6-carboxamide] reads 322.8 to 324.3 °C.
With `CCOc1ccc(-c2nc(C(N)=O)c3nc(S)n(-c4ccccc4)c3n2)cc1` [Compound 10a, 2-(4-Ethoxyphenyl)-9-phenyl-8-mercaptopurine-6-carboxamide], the melting point is 321.2 to 321.8 °C (dec.).
Compound `COC(=O)c1cccc(-n2c(=O)[nH]c3c(C(N)=O)nc(-c4ccc(OC)c(O)c4)nc32)c1` [Compound 5j, 2-(3-Hydroxy-4-methoxyphenyl)-9-(3-methoxycarbonylphenyl)-8-oxopurine-6-carboxamide] yielded a melting point of 333.3 to 334.3 °C.
Same read-out and setting: the value for `CCOC(=O)Oc1nc2c(C#N)nc(-c3ccc(OCC)cc3)nc2n1-c1ccccc1OC` [Compound 17a, 6-Cyano-2-(4-ethoxyphenyl)-9-(2-methoxyphenyl)purin-8-yl ethyl carbonate] was 270 to 272 °C; that for `CCOc1ccc(-c2nc(C#N)c3nc(SC(=O)OCc4ccccc4)n(-c4ccccc4)c3n2)cc1` [Compound 28a, 8-(Benzyloxycarbonylthio)-2-(4-ethoxyphenyl)-9-phenylpurine-6-carboxnitrile] was 179.2 to 180.4 °C; that for `CCOc1ccc(-c2nc(C#N)c3nc(N)n(-c4ccccc4OC)c3n2)cc1` [Compound 33a, 8-Amino-2-(4-ethoxyphenyl)-9-(2-methoxyphenyl)purine-6-carbonitrile] was 297 to 299 °C.
With `COc1ccccc1-n1c(=O)[nH]c2c(C(N)=O)nc(-c3ccc(O)cc3)nc21` [Compound 5b, 2-(4-Hydroxyphenyl)-9-(2-methoxyphenyl)-8-oxopurine-6-carboxamide], the melting point is 370.2 to 371.8 °C.
The same measure, in the same setting: the value for `CCOc1ccc(-c2nc(C#N)c3c(n2)n(-c2ccccc2OC)c(=O)n3Cc2ccccc2)cc1` [Compound 15c, 7-Benzyl-2-(4-ethoxyphenyl)-9-(2-methoxyphenyl)-8-oxopurine-6-carbonitrile] was 164 to 166 °C; that for `CCOc1ccc(-c2nc(C#N)c3nc(NC(=O)OC(C)(C)C)n(-c4ccccc4OC)c3n2)cc1` [Compound 34a, Tert-butyl (6-cyano-2-(4-ethoxyphenyl)-9-(2-methoxyphenyl)purin-8-yl)carbamate] was 260 to 262 °C (dec.); that for `CCOc1ccc(-c2nc(C#N)c3c(n2)n(-c2ccccc2OC)c(=O)n3C)cc1` [Compound 15a, 2-(4-Ethoxyphenyl)-9-(2-methoxyphenyl)-7-methyl-8-oxopurine-6-carbonitrile] was 235 to 237 °C.
Same read-out and setting: the value for `CCOc1ccc(-c2nc(C#N)c3[nH]c(=O)n(-c4cccc(C(=O)OC)c4)c3n2)cc1` [Compound 12c, 2-(4-Ethoxyphenyl)-9-(3-methoxycarbonylphenyl)-8-oxopurine-6-carbonitrile] was 297 to 299 °C; that for `CCOc1ccc(-c2nc(C#N)c3nc(S)n(-c4ccccc4)c3n2)cc1` [Compound 27a, 2-(4-Ethoxyphenyl)-8-mercapto-9-phenylpurine-6-carboxnitrile] was 278.5 to 280 °C; that for `C=CCn1c(=O)n(-c2ccccc2OC)c2nc(-c3ccc(OCC)cc3)nc(C#N)c21` was 144 to 146 °C.
On to `COc1ccc(-c2nc(C(N)=O)c3nc(S)n(-c4ccccc4)c3n2)cc1O` [Compound 10b, 2-(3-Hydroxy-4-methoxyphenyl)-8-mercapto-9-phenylpurine-6-carboxamide], for which the melting point was 368.9 to 369.7 °C (dec.).
Same read-out and setting: the result for `CCOc1ccc(-c2nc(C#N)c3nc(N4CCOCC4)n(-c4ccccc4OC)c3n2)cc1` [Compound 33b, 2-(4-Ethoxyphenyl)-9-(2-methoxyphenyl)-8-morpholinopurine-6-carbonitrile] reads 273 to 275 °C; that for `COc1ccc(-c2nc(C(=N)NO)c3[nH]c(=O)n(-c4ccccc4OC)c3n2)cc1O` [Compound 14f, 2-(3-Hydroxy-4-methoxyphenyl)-9-(2-methoxyphenyl)-8-oxopurine-6-(N-hydroxy)carboximidamide], 226 to 228 °C.
Still for that read-out and setting: the value for `CCCCOc1ccc(-c2nc(C(N)=O)c3[nH]c(=O)n(-c4ccccc4OC)c3n2)cc1` [Compound 5c, 2-(4-Butoxyphenyl)-9-(2-methoxyphenyl)-8-oxopurine-6-carboxamide] was 268.7 to 270.2 °C.
Same read-out and setting: the value for `COc1ccc(-c2nc(C(N)=O)c3[nH]c(=O)n(-c4ccccc4OC)c3n2)cc1O` [Compound 5n, 2-(3-Hydroxy-4-methoxyphenyl)-9-(2-methoxyphenyl)-8-oxopurine-6-carboxamide] was 319 to 321 °C; that for `CCOc1ccc(-c2nc(C(N)=O)c3[nH]c(=O)n(-c4cc(C(F)(F)F)cc(C(F)(F)F)c4)c3n2)cc1` [Compound 5m, 9-(3,5-Bis(trifluoromethyl)phenyl)-2-(4-ethoxyphenyl)-8-oxopurine-6-carboxamide] was 288 to 290 °C.
The compound `CCOc1ccc(-c2nc(C(=N)NO)c3[nH]c(=O)n(-c4cccc(C(=O)OC)c4)c3n2)cc1` [Compound 14c, 2-(4-Ethoxyphenyl)-9-(3-methoxycarbonylphenyl)-8-oxopurine-6-(N-hydroxy)carboximidamide] gave a melting point of 257 to 259 °C.
For the compound `CCOc1ccc(-c2nc(C#N)c3[nH]c(=O)n(-c4ccccc4OC)c3n2)cc1` [Compound 12a, 2-(4-Ethoxyphenyl)-9-(2-methoxyphenyl)-8-oxopurine-6-carbonitrile], the melting point lay within 288 to 290 °C.
On the same count and under the same terms, the result for `CCOc1ccc(-c2nc(C(N)=O)c3nc(SC)n(-c4ccccc4)c3n2)cc1` [Compound 11a, 2-(4-Ethoxyphenyl)-8-(methylthio)-9-phenylpurine-6-carboxamide] reads 309.7 to 311 °C (dec.); that for `NC(=O)c1nc(-c2ccc(O)cc2)nc2c1nc(S)n2-c1ccccc1`, 361 to 363 °C.
The same measure, in the same setting: the result for `C=CCn1oc(=O)nc1-c1nc(-c2ccc(OCC)cc2)nc2c1n(CC=C)c(=O)n2-c1ccccc1OC` [Compound 25a, 2-Allyl-3-[7-allyl-2-(4-ethoxyphenyl)-9-(2-methoxyphenyl)-8-oxopurin-6-yl]-1,2,4-oxadiazol-5-one] reads 88 to 90 °C.
